Literature values, collected in patent US8772510B2, “PDE10 modulators” (Hoffmann-La Roche Inc., priority 2011, dated 2014).

Target: PDE10A (Rattus norvegicus (Rat), UniProt Q9QYJ6)
Conditions: rats, sub-chronic treatment with PCP; Rodefer et al. 2005

Sequence of PDE10A (Q9QYJ6 whole entry): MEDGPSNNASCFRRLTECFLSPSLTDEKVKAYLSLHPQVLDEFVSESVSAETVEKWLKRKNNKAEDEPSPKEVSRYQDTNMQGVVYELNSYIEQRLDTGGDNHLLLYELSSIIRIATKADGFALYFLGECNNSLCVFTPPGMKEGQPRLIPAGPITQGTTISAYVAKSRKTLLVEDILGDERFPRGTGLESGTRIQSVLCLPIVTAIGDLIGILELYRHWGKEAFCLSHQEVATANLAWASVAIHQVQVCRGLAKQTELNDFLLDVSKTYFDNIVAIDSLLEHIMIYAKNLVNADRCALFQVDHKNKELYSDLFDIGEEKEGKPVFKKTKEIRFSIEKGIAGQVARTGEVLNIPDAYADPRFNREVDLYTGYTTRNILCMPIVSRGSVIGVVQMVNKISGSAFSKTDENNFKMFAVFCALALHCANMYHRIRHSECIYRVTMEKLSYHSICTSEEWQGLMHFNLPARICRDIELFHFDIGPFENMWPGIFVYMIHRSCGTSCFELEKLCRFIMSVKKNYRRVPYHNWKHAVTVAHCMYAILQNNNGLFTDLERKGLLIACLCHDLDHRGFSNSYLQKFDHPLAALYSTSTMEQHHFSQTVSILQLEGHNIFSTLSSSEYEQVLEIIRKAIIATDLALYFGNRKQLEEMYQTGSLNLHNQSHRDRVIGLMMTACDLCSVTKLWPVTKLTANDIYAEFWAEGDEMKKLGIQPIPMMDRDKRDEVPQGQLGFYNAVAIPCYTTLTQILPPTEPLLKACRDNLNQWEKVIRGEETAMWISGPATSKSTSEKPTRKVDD

For COc1ccc(Cc2nccc3cc(OC)c(OC)cc23)cc1OC [papaverine, Papaverine], the “deficits in extra-dimensional shift learning” value is listed as “attenuate the deficits in the extra-dimensional shift learning”.
